Holding throughout (assay): relative viability (nuclei count vs DMSO), 5 days (fraction); higher = more cells survive
Compound in assay [1]: Cn1nnc2c(C(N)=O)ncn2c1=O [Temozolomide] + COc1cccc2cc(-c3nc([C@H]4CC[C@H](C(=O)O)CC4)n4ncnc(N)c34)[nH]c12 [OSI-027] (partner 0.5 µM)
Summed up: (§1)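 Lung cancer cell lines were seeded in 1536-well plates and dosed by pin tool the next day, with either a single drug or a fixed anchor-drug dose combined with five library-drug doses (not always all listed) spaced in √10 steps. Five days later, one step fixed the cells and stained their nuclei (final 0.05% Triton X-100, 1% formaldehyde, 1 ug/ml Hoechst), and nuclei were counted on 4× images. Relative viability is the nuclei count in treated wells divided by the count in vehicle wells, and each value is the median of duplicate plates.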

Compound in assay [2]: C[C@@H](C(=O)N[C@@H](C1CCCCC1)C(=O)N2CCC[C@H]2C(=O)N[C@@H]3[C@@H](CC4=CC=CC=C34)OCC#CC#CCO[C@@H]5CC6=CC=CC=C6[C@@H]5NC(=O)[C@@H]7CCCN7C(=O)[C@H](C8CCCCC8)NC(=O)[C@H](C)NC)NC [AZD5582] + CCNC(=O)c1noc(-c2cc(C(C)C)c(O)cc2O)c1-c1ccc(CN2CCOCC2)cc1 [Luminespib] (partner 0.01 µM)
In short, it runs like this: as §1

Compound in assay [3]: C[C@@H](C(=O)N[C@@H](C1CCCCC1)C(=O)N2CCC[C@H]2C(=O)N[C@@H]3[C@@H](CC4=CC=CC=C34)OCC#CC#CCO[C@@H]5CC6=CC=CC=C6[C@@H]5NC(=O)[C@@H]7CCCN7C(=O)[C@H](C8CCCCC8)NC(=O)[C@H](C)NC)NC [AZD5582] + Nc1nc2[nH]cc(CCc3ccc(C(=O)N[C@@H](CCC(=O)O)C(=O)O)cc3)c2c(=O)[nH]1 [Pemetrexed] (partner 0.2 µM)
In short, it runs like this:
as §1

Compound in assay [4]: C[C@@H](C(=O)N[C@@H](C1CCCCC1)C(=O)N2CCC[C@H]2C(=O)N[C@@H]3[C@@H](CC4=CC=CC=C34)OCC#CC#CCO[C@@H]5CC6=CC=CC=C6[C@@H]5NC(=O)[C@@H]7CCCN7C(=O)[C@H](C8CCCCC8)NC(=O)[C@H](C)NC)NC [AZD5582] + C[C@@H](Oc1cc(-c2cnn(C3CCNCC3)c2)cnc1N)c1c(Cl)ccc(F)c1Cl [Crizotinib] (partner 1 µM)
In short, it runs like this:
as §1

With LK-2, the relative viability in assay [1] (first compound 0.2 µM) is 0.2; in assay [1] (first compound 0.6325 µM) it was 0.218; in assay [1] (first compound 2 µM), 0.214; in assay [1] (first compound 6.325 µM), 0.168; in assay [1] (first compound 20 µM) it was 0.196; in assay [2] (first compound 0.001581 µM), 0.178. Also, the relative viability in assay [2] (first compound 0.005 µM) stood at 0.202; in assay [2] (first compound 0.01581 µM), 0.191; in assay [2] (first compound 0.05 µM), 0.171; in assay [3] (first compound 0.001581 µM), 0.199; in assay [3] (first compound 0.005 µM), 0.25; in assay [3] (first compound 0.05 µM), 0.256. Further, the relative viability was determined as 0.225 in assay [4] (first compound 0.001581 µM), 0.218 in assay [4] (first compound 0.005 µM), 0.218 in assay [4] (first compound 0.01581 µM) and 0.24 in assay [4] (first compound 0.05 µM).
Turning to LXF-289, the relative viability in assay [1] (first compound 0.2 µM) stood at 0.772; in assay [1] (first compound 0.6325 µM) it was 0.863; in assay [1] (first compound 2 µM) it was 0.927; in assay [1] (first compound 6.325 µM) it was 0.76; in assay [1] (first compound 20 µM), 0.63; in assay [2] (first compound 0.001581 µM) it was 0.76. Further, the relative viability in assay [2] (first compound 0.005 µM) was found to be 0.561; in assay [2] (first compound 0.01581 µM), 0.627; in assay [2] (first compound 0.05 µM) it was 0.749; in assay [3] (first compound 0.001581 µM), 0.798; in assay [3] (first compound 0.005 µM), 0.815; in assay [3] (first compound 0.01581 µM) it was 0.872. Also, the relative viability in assay [3] (first compound 0.05 µM) worked out at 0.797; in assay [4] (first compound 0.001581 µM), 0.75; in assay [4] (first compound 0.005 µM) it was 0.788; in assay [4] (first compound 0.01581 µM), 0.788; in assay [4] (first compound 0.05 µM), 0.725.
Turning to EMC-BAC-2, the relative viability in assay [1] (first compound 0.2 µM) amounted to 0.454; in assay [1] (first compound 0.6325 µM) it was 0.355; in assay [1] (first compound 2 µM), 0.369; in assay [1] (first compound 6.325 µM), 0.396; in assay [1] (first compound 20 µM), 0.419; in assay [2] (first compound 0.001581 µM), 1.06. The relative viability in assay [2] (first compound 0.005 µM) came out at 0.922; in assay [2] (first compound 0.01581 µM), 1.19; in assay [2] (first compound 0.05 µM) it was 0.721; in assay [3] (first compound 0.001581 µM), 0.417; in assay [3] (first compound 0.005 µM), 0.406; in assay [3] (first compound 0.01581 µM) it was 0.426. The relative viability in assay [3] (first compound 0.05 µM) came out at 0.46; in assay [4] (first compound 0.001581 µM), 0.637; in assay [4] (first compound 0.005 µM) it was 0.551; in assay [4] (first compound 0.01581 µM) it was 0.682; in assay [4] (first compound 0.05 µM), 0.236.
For 201T, the relative viability was 0.77 in assay [1] (first compound 0.2 µM); 0.716 in assay [1] (first compound 0.6325 µM); 0.583 in assay [1] (first compound 2 µM); 0.769 in assay [1] (first compound 6.325 µM); 0.794 in assay [1] (first compound 20 µM); 1.11 in assay [2] (first compound 0.001581 µM). Further, the relative viability in assay [2] (first compound 0.005 µM) is 1.17; in assay [2] (first compound 0.01581 µM), 0.99; in assay [2] (first compound 0.05 µM), 1.23; in assay [3] (first compound 0.001581 µM) it was 0.311; in assay [3] (first compound 0.005 µM), 0.299; in assay [3] (first compound 0.01581 µM), 0.298. For the same cell line, the relative viability was 0.281 in assay [3] (first compound 0.05 µM); 1.09 in assay [4] (first compound 0.001581 µM); 1.12 in assay [4] (first compound 0.005 µM); 1.04 in assay [4] (first compound 0.01581 µM); 1.25 in assay [4] (first compound 0.05 µM).
With ChaGo-K-1, the relative viability in assay [1] (first compound 0.2 µM) was found to be 0.623; in assay [1] (first compound 0.6325 µM), 0.543; in assay [1] (first compound 2 µM), 0.685; in assay [1] (first compound 6.325 µM) it was 0.508; in assay [1] (first compound 20 µM), 0.554; in assay [2] (first compound 0.001581 µM), 0.518. Moreover, the relative viability in assay [2] (first compound 0.005 µM) worked out at 0.691; in assay [2] (first compound 0.01581 µM), 0.518; in assay [2] (first compound 0.05 µM), 0.633; in assay [3] (first compound 0.001581 µM), 0.243; in assay [3] (first compound 0.005 µM), 0.267; in assay [3] (first compound 0.01581 µM), 0.254. Besides, the relative viability in assay [3] (first compound 0.05 µM) is 0.276; in assay [4] (first compound 0.001581 µM) it was 0.988; in assay [4] (first compound 0.005 µM), 1.1; in assay [4] (first compound 0.01581 µM), 1.13; in assay [4] (first compound 0.05 µM) it was 1.23.
In the case of RERF-LC-KJ, the relative viability turned out to be 0.495 in assay [1] (first compound 0.2 µM); 0.6 in assay [1] (first compound 0.6325 µM); 0.597 in assay [1] (first compound 2 µM); 0.53 in assay [1] (first compound 6.325 µM); 0.554 in assay [1] (first compound 20 µM); 1.22 in assay [2] (first compound 0.01581 µM). Also, the relative viability came to 1.06 in assay [2] (first compound 0.05 µM); 0.154 in assay [3] (first compound 0.001581 µM); 0.235 in assay [3] (first compound 0.005 µM); 0.457 in assay [3] (first compound 0.01581 µM); 0.289 in assay [3] (first compound 0.05 µM); 0.525 in assay [4] (first compound 0.001581 µM). For the same cell line, the figures for the relative viability in assay [4] (first compound 0.005 µM), in assay [4] (first compound 0.01581 µM) and in assay [4] (first compound 0.05 µM) were 0.516, 0.792 and 0.782, respectively.
On to SW 1573, for which the relative viability came out at 0.672 in assay [1] (first compound 0.2 µM); 0.66 in assay [1] (first compound 0.6325 µM); 0.734 in assay [1] (first compound 2 µM); 0.608 in assay [1] (first compound 6.325 µM); 0.721 in assay [1] (first compound 20 µM); 0.19 in assay [2] (first compound 0.001581 µM). In addition, the relative viability in assay [2] (first compound 0.005 µM) is 0.248; in assay [2] (first compound 0.01581 µM), 0.478; in assay [2] (first compound 0.05 µM), 0.285; in assay [3] (first compound 0.001581 µM) it was 0.805; in assay [3] (first compound 0.005 µM) it was 0.774; in assay [3] (first compound 0.01581 µM), 0.954. In addition, the relative viability in assay [3] (first compound 0.05 µM) is 0.821; in assay [4] (first compound 0.001581 µM), 0.686; in assay [4] (first compound 0.005 µM), 0.717; in assay [4] (first compound 0.01581 µM), 0.815; in assay [4] (first compound 0.05 µM), 0.858.
In the case of NCI-H2347, the relative viability turned out to be 0.338 in assay [1] (first compound 0.2 µM); 0.428 in assay [1] (first compound 0.6325 µM); 0.501 in assay [1] (first compound 2 µM); 0.376 in assay [1] (first compound 6.325 µM); 0.432 in assay [1] (first compound 20 µM); 0.616 in assay [2] (first compound 0.001581 µM). In addition, the relative viability in assay [2] (first compound 0.005 µM) turned out to be 0.239; in assay [2] (first compound 0.01581 µM) it was 0.262; in assay [2] (first compound 0.05 µM), 0.692; in assay [3] (first compound 0.001581 µM), 0.369; in assay [3] (first compound 0.005 µM) it was 0.441; in assay [3] (first compound 0.01581 µM), 0.41. Also, the relative viability was determined as 0.402 in assay [3] (first compound 0.05 µM); 0.657 in assay [4] (first compound 0.001581 µM); 0.601 in assay [4] (first compound 0.005 µM); 0.509 in assay [4] (first compound 0.01581 µM); 0.701 in assay [4] (first compound 0.05 µM).
For NCI-H2126, the relative viability was 0.686 in assay [1] (first compound 0.2 µM); 0.781 in assay [1] (first compound 0.6325 µM); 0.85 in assay [1] (first compound 2 µM); 1.12 in assay [1] (first compound 6.325 µM); 0.717 in assay [1] (first compound 20 µM); 0.817 in assay [2] (first compound 0.001581 µM). In addition, the relative viability was 0.831 in assay [2] (first compound 0.005 µM); 0.84 in assay [2] (first compound 0.01581 µM); 0.811 in assay [2] (first compound 0.05 µM); 0.626 in assay [3] (first compound 0.001581 µM); 0.689 in assay [3] (first compound 0.005 µM); 0.55 in assay [3] (first compound 0.01581 µM). Besides, the relative viability in assay [3] (first compound 0.05 µM) is 0.472; in assay [4] (first compound 0.001581 µM), 1.04; in assay [4] (first compound 0.005 µM), 0.932; in assay [4] (first compound 0.01581 µM), 0.967; in assay [4] (first compound 0.05 µM), 0.662.

For the origin of these results see the supplement of paper PMC10307832.
